System: MCF-7 breast cancer cells
Test: Microarray gene expression analysis (Agilent whole human genome 4 x 44K; compound vs DMSO, LIMMA log2 fold change)
Format: cell-based
Conditions: cell cycle genes

## Cn1ncc2c(N3CCOCC3)nc(-c3cccc(O)c3)nc21 [ETP-45658]
Gene 4291
  MLF1 log2FC: 0.627
Gene 4292
  MLH1 log2FC: 0.538
Gene 4296
  MAP3K11 log2FC: -0.949
Gene 4331
  MNAT1 log2FC: 0.729
Gene 4335
  MNT log2FC: 1.624
Gene 4342
  MOS log2FC: -0.164
Gene 4361
  MRE11A log2FC: 0.332
Gene 4436
  MSH2 log2FC: 0.939
Gene 4437
  MSH3 log2FC: 0.739
Gene 4438
  MSH4 log2FC: -0.048
Gene 4487
  MSX1 log2FC: -0.324
Gene 4488
  MSX2 log2FC: 0.054
Gene 4582
  MUC1 log2FC: -0.901
Gene 4591
  TRIM37 log2FC: 0.868
Gene 4600
  MX2 log2FC: -0.054
Gene 4602
  MYB log2FC: 0.452
Gene 4605
  MYBL2 log2FC: -0.545
Gene 4609
  MYC log2FC: 0.554
Gene 4616
  GADD45B log2FC: 0.642
Gene 4627
  MYH9 log2FC: -0.364
Gene 4628
  MYH10 log2FC: -0.039
Gene 4659
  PPP1R12A log2FC: 0.489
Gene 4660
  PPP1R12B log2FC: 0.389
Gene 4682
  NUBP1 log2FC: -0.227
Gene 4683
  NBN log2FC: 0.839
Gene 4739
  NEDD9 log2FC: -0.017
Gene 4750
  NEK1 log2FC: 0.621
Gene 4751
  NEK2 log2FC: 0.969
Gene 4760
  NEUROD1 log2FC: -0.043
Gene 4804
  NGFR log2FC: -0.063
Gene 4853
  NOTCH2 log2FC: 0.166
Gene 4863
  NPAT log2FC: 0.585
Gene 4869
  NPM1 log2FC: 0.586
Gene 4927
  NUP88 log2FC: 0.539
Gene 4957
  ODF2 log2FC: -0.215
Gene 5008
  OSM log2FC: 0.056
Gene 5017
  OVOL1 log2FC: -0.043
Gene 5048
  PAFAH1B1 log2FC: 0.720
Gene 5058
  PAK1 log2FC: 0.117
Gene 5063
  PAK3 log2FC: 0.230
Gene 5108
  PCM1 log2FC: 0.687
Gene 5116
  PCNT log2FC: 0.317
Gene 5155
  PDGFB log2FC: -0.598
Gene 5159
  PDGFRB log2FC: 0.022
Gene 5229
  PGGT1B log2FC: -0.232
Gene 5243
  ABCB1 log2FC: -0.025
Gene 5289
  PIK3C3 log2FC: 1.044
Gene 5292
  PIM1 log2FC: 1.131
Gene 5300
  PIN1 log2FC: -0.195
Gene 5310
  PKD1 log2FC: 0.265
Gene 5311
  PKD2 log2FC: 0.346
Gene 5314
  PKHD1 log2FC: -0.057
Gene 5325
  PLAGL1 log2FC: 0.310
Gene 5371
  PML log2FC: -0.804
Gene 5378
  PMS1 log2FC: 0.682
Gene 5395
  PMS2 log2FC: 0.442
Gene 5424
  POLD1 log2FC: 0.148
Gene 5426
  POLE log2FC: -0.223
Gene 5471
  PPAT log2FC: 0.243
Gene 5494
  PPM1A log2FC: 0.474
Gene 5500
  PPP1CB log2FC: 1.012
Gene 5501
  PPP1CC log2FC: 0.572
Gene 5518
  PPP2R1A log2FC: -0.055
Gene 5520
  PPP2R2A log2FC: 0.059
Gene 5524
  PPP2R4 log2FC: -0.446
Gene 5527
  PPP2R5C log2FC: 0.888
Gene 5530
  PPP3CA log2FC: 0.422
Gene 5536
  PPP5C log2FC: -0.138
Gene 5537
  PPP6C log2FC: -0.352
Gene 5546
  PRCC log2FC: -0.798
Gene 5557
  PRIM1 log2FC: 0.636
Gene 5562
  PRKAA1 log2FC: 0.429
Gene 5563
  PRKAA2 log2FC: 0.082
Gene 5564
  PRKAB1 log2FC: 0.427
Gene 5565
  PRKAB2 log2FC: 1.177
Gene 5566
  PRKACA log2FC: -0.596
Gene 5569
  PKIA log2FC: -0.378
Gene 5571
  PRKAG1 log2FC: 0.238
Gene 5573
  PRKAR1A log2FC: 0.532
Gene 5577
  PRKAR2B log2FC: 0.565
Gene 5578
  PRKCA log2FC: -0.217
Gene 5580
  PRKCD log2FC: -0.079
Gene 5581
  PRKCE log2FC: -0.042
Gene 5586
  PKN2 log2FC: 0.510
Gene 5594
  MAPK1 log2FC: -0.045
Gene 5595
  MAPK3 log2FC: -0.190
Gene 5603
  MAPK13 log2FC: -0.354
Gene 5604
  MAP2K1 log2FC: -0.107
Gene 5608
  MAP2K6 log2FC: 0.116
Gene 5629
  PROX1 log2FC: 0.206
Gene 5655
  KLK10 log2FC: -0.446
Gene 5682
  PSMA1 log2FC: 0.045
Gene 5685
  PSMA4 log2FC: 0.609
Gene 5687
  PSMA6 log2FC: 0.200
Gene 5689
  PSMB1 log2FC: 0.085
Gene 5690
  PSMB2 log2FC: -0.547
Gene 5691
  PSMB3 log2FC: -0.030
Gene 5693
  PSMB5 log2FC: -0.298
Gene 5694
  PSMB6 log2FC: -0.120
Gene 5696
  PSMB8 log2FC: -0.045
Gene 5700
  PSMC1 log2FC: 0.172
Gene 5701
  PSMC2 log2FC: 0.576
Gene 5705
  PSMC5 log2FC: -0.327
Gene 5706
  PSMC6 log2FC: 0.776
Gene 5708
  PSMD2 log2FC: 0.090
Gene 5709
  PSMD3 log2FC: -0.109
Gene 5710
  PSMD4 log2FC: -0.086
Gene 5711
  PSMD5 log2FC: 0.388
Gene 5713
  PSMD7 log2FC: 0.182
Gene 5715
  PSMD9 log2FC: -0.171
Gene 5718
  PSMD12 log2FC: -0.582
Gene 5719
  PSMD13 log2FC: -0.031
Gene 5721
  PSME2 log2FC: 0.039
Gene 5728
  PTEN log2FC: 1.014
Gene 5743
  PTGS2 log2FC: -0.151
Gene 5774
  PTPN3 log2FC: -0.174
Gene 5777
  PTPN6 log2FC: 0.120
Gene 5788
  PTPRC log2FC: -0.053
Gene 5796
  PTPRK log2FC: 0.583
Gene 5810
  RAD1 log2FC: -0.104
Gene 5883
  RAD9A log2FC: 0.686
Gene 5884
  RAD17 log2FC: 1.203
Gene 5885
  RAD21 log2FC: 1.043
Gene 5888
  RAD51 log2FC: -0.360
Gene 5893
  RAD52 log2FC: 0.105
Gene 5901
  RAN log2FC: 0.119
Gene 5902
  RANBP1 log2FC: -0.137
Gene 5903
  RANBP2 log2FC: 0.605
Gene 5914
  RARA log2FC: -0.580
Gene 5921
  RASA1 log2FC: 0.488
Gene 5925
  RB1 log2FC: 0.746
Gene 5934
  RBL2 log2FC: 0.480
Gene 5981
  RFC1 log2FC: 1.105
Gene 5982
  RFC2 log2FC: 0.117
Gene 5985
  RFC5 log2FC: 0.243
Gene 5997
  RGS2 log2FC: -2.314
Gene 6009
  RHEB log2FC: 0.421
Gene 6045
  RNF2 log2FC: -0.048
Gene 6047
  RNF4 log2FC: -0.426
Gene 6119
  RPA3 log2FC: 0.162
Gene 6196
  RPS6KA2 log2FC: 0.035
Gene 6197
  RPS6KA3 log2FC: 0.412
Gene 6210
  RPS15A log2FC: 0.277
Gene 6232
  RPS27 log2FC: 0.416
Gene 6233
  RPS27A log2FC: 0.401
Gene 6240
  RRM1 log2FC: 0.612
Gene 6241
  RRM2 log2FC: -0.808
Gene 6419
  SETMAR log2FC: -0.171
Gene 6478
  SIAH2 log2FC: -0.579
Gene 6502
  SKP2 log2FC: -1.072
Gene 6597
  SMARCA4 log2FC: -0.352
Gene 6657
  SOX2 log2FC: 0.298
Gene 6662
  SOX9 log2FC: -2.381
Gene 6683
  SPAST log2FC: 0.519
Gene 6711
  SPTBN1 log2FC: 0.111
Gene 6733
  SRPK2 log2FC: 0.850
Gene 6737
  TRIM21 log2FC: -0.066

— paper PMC4303209, “A novel phosphatidylinositol 3-kinase (PI3K) inhibitor directs a potent FOXO-dependent, p53-independent cell cycle arrest phenotype characterized by the differential induction of a subset of FOXO-regulated genes” (Breast Cancer Research : BCR, 2014)
